Measurements taken from PubChem BioAssay AID1996.
≈ marks a conversion by molar mass, not a printed value.

Details: buffer; pH 7.4; 200.0 µM

SMILES | solubility kinetic
O=C(N1CCCC1)C12CC3CC(CC(Cl)(C3)C1)C2 | 37.9 µg/mL (≈ 142 µM)
COc1ccc(NC(=S)Nc2cc(C(F)(F)F)ccc2F)cc1 | 8.7 µg/mL (≈ 25.3 µM)
Cc1cc(C(=O)NCCc2ccc(Cl)cc2)no1 | 18.6 µg/mL (≈ 70.3 µM)
Cc1ccc(N2CC(C)Cn3c2nc2c3c(=O)[nH]c(=O)n2C)cc1 (centres undefined) | 8.8 µg/mL (≈ 27 µM)
COc1ccc2c(c1)nc(CN1CCN(CCO)CC1)n2C | > 45.7 µg/mL
O=C(CN1C(=O)NC2(CCOc3ccccc32)C1=O)NCc1ccccc1 (centres undefined) | > 54.8 µg/mL
Cc1cn2c(=O)c(C(=O)N3CCN(c4ccccc4)CC3)cnc2s1 | > 53.2 µg/mL
O=S1(=O)N=C(N2CCCC2)c2ccccc21 | 31.4 µg/mL (≈ 133 µM)
O=C(Nc1nc2ccsc2c(=O)s1)c1ccc(F)cc1 | < 0.3 µg/mL
Cn1c(/C(C#N)=C(\O)c2cc(Cl)sc2Cl)nc2ccccc21 | 0.9 µg/mL (≈ 2.57 µM)
COc1ccc(Cl)cc1C(=O)N1CCN(Cc2ccc3c(c2)OCO3)CC1 | 47.4 µg/mL (≈ 122 µM)
COCc1cccc(C(=O)NC(c2ccccc2)c2ccccc2)c1 | 3.1 µg/mL (≈ 9.35 µM)
CC(C)c1ccccc1NC(=S)NC(=O)C1CCCCC1 | 0.9 µg/mL (≈ 2.96 µM)
Clc1nccc(N2CCN(c3ccccc3Cl)CC2)n1 | 13.3 µg/mL (≈ 43 µM)
O=C(CCC(=O)Nc1cccc([N+](=O)[O-])c1)NCc1ccccc1 | 48.5 µg/mL (≈ 148 µM)
CC(C)(C)c1csc(NC(=O)c2ccccc2O)n1 | 9.3 µg/mL (≈ 33.7 µM)
O=C(COC(=O)C1CCCCC1)Nc1cc([N+](=O)[O-])ccc1F | 36.4 µg/mL (≈ 112 µM)
CC(=O)OC(C(=O)Nc1nccs1)c1ccccc1 (centres undefined) | > 41.4 µg/mL
Cc1cn2c(nc1=O)OC1CC2OC1CO (centres undefined) | > 33.6 µg/mL
C=CCn1c(C(O)c2ccccc2)nc2ccccc21 (centres undefined) | 24.2 µg/mL (≈ 91.6 µM)

SMILES | solubility kinetic
O=C1NC2(CCCCCCC2)C(=O)N1Cc1ccc(F)cc1 | 10.5 µg/mL (≈ 34.5 µM)
Cc1ccnc(NC(=O)COC(=O)C23CC4CC(CC(C4)C2)C3)n1 | 8.7 µg/mL (≈ 26.4 µM)
CCN1C(=O)c2ccc(C(=O)NCc3ccco3)cc2C1=O | > 44.7 µg/mL
N#CCCN(Cc1ccccc1)C(=O)c1nccnc1C(=O)O | > 46.5 µg/mL
C[C@]12CS(=O)(=O)C[C@H]1SC(=S)N2c1ccccc1 | > 44.9 µg/mL
Cc1ccc(O)c(NC(=O)c2noc(C(C)C)c2[N+](=O)[O-])c1 | 40.5 µg/mL (≈ 133 µM)
COC(=O)C(C(C)C)N1CCc2c(C)nc3c(C#N)cnn3c21 (centres undefined) | > 47 µg/mL
O=c1c2cc(-c3ccccc3)sc2nc2n1CCC2 | 1.5 µg/mL (≈ 5.59 µM)
CCN(c1ccccc1)c1nc(=O)c2cccnc2s1 | > 42.5 µg/mL
COc1ccc(C(=O)N2CCN=C2SC)cc1 | > 37.5 µg/mL
Cc1cc(C)c(C(N)=O)c(Nc2ccc(F)cc2)n1 | > 38.9 µg/mL
Cc1cnc(C(=O)Nc2ccc(OC(F)(F)F)cc2)cn1 | 2.6 µg/mL (≈ 8.75 µM)
Nc1ccccc1C(=O)N1CCC(O)(c2ccc(Cl)cc2)CC1 | 23.9 µg/mL (≈ 72.2 µM)
CCc1ccc(NC(=S)NCC2CCCN2CC)cc1 (centres undefined) | > 43.7 µg/mL
Cc1ccc(NC(=O)CN2CCCC2c2cccn2C)c(Br)c1 (centres undefined) | 11.4 µg/mL (≈ 30.3 µM)
Cc1cc(C)cc(NC(=O)COC(=O)COc2ccc(N(C)S(=O)(=O)c3cccs3)cc2)c1 | 9.1 µg/mL (≈ 18.6 µM)
CC(=O)c1ccccc1NC(=O)COC(=O)c1cc[n+]([O-])cc1 | > 47.1 µg/mL
CCC(C)NC(=O)c1cc2c(=O)n3cccc(C)c3nc2s1 (centres undefined) | 46 µg/mL (≈ 146 µM)
O=C1OCCN/C1=C\C(=O)c1ccc(Cl)cc1 | > 37.8 µg/mL
Cc1cc(C)c2c(N)c(C(=O)Nc3ccc(F)cc3)sc2n1 | 1.1 µg/mL (≈ 3.49 µM)

SMILES | solubility kinetic
C=CCn1c(O)c(C(CC)=Nc2ccc(C(=O)O)cc2)c(=O)[nH]c1=O | > 51.5 µg/mL
O=C(CN1C(=O)C2CCCCC2C1=O)Nc1nccs1 (centres undefined) | > 44 µg/mL
O=C(COC(=O)c1ccccc1Br)NCC1CCCCC1 | 38.1 µg/mL (≈ 108 µM)
O=C(CSc1nc(C2CC2)nc2ccccc12)Nc1cccc(O)c1 | < 0.3 µg/mL
Cc1cccc(NC(=O)c2ccc(S(=O)(=O)N(C)c3ccccc3)cc2)n1 | 11.6 µg/mL (≈ 30.4 µM)
COc1ccc(CNC(=O)CCn2c(=O)[nH]c3ccccc3c2=O)cc1 | 2.9 µg/mL (≈ 8.21 µM)
CCc1ccc(CN2C(=O)c3ccccc3C2C(=O)NC(C)CC)cc1 (centres undefined) | 5.3 µg/mL (≈ 15.1 µM)
Cc1cc(S(=O)(=O)Nc2cccnc2)c(Cl)cc1Cl | 4.5 µg/mL (≈ 14.2 µM)
Cc1cc(=O)oc2cc(OCC(=O)N3CCCC3)ccc12 | > 43.1 µg/mL
O=C1CC(c2ccc(Cl)cc2)CC(O)=C1C=NCCO (centres undefined) | > 44.1 µg/mL
COc1ccc(Nc2ncnc3ccc(Br)cc23)c(OC)c1 | 7.3 µg/mL (≈ 20.3 µM)
O=C1CCC([N+](=O)[O-])C(c2cccc([N+](=O)[O-])c2)N1 (centres undefined) | > 39.8 µg/mL
COc1ccc(C(=O)C2CCCN(C(=O)C3=CCCC3)C2)cc1OC (centres undefined) | > 51.5 µg/mL
Cc1cc(C)c2c(n1)sc1c(=O)n(Cc3ccc(F)cc3)cnc12 | < 0.2 µg/mL
O=C(O)c1cc(-c2cccs2)nc2ccc(F)cc12 | > 41 µg/mL
CC(C)N(Cc1ccccc1)C(=S)NCc1ccccc1 | 19.4 µg/mL (≈ 65 µM)
O=C1C=C(N2CCOCC2)C2(CCCCC2)O1 | > 35.6 µg/mL
CCOc1ccc(NC(=O)NCc2cccn2C)cc1 | 9.2 µg/mL (≈ 33.7 µM)
CC(C)C(=O)NC(CC(=O)O)c1ccccc1 (centres undefined) | > 35.3 µg/mL
